Assay: xn = mol fraction of the nth substance listed
Conditions: 101 kPa, Liquid

CC(=O)c1ccccc1 [acetophenone] + CCCCCCO
Conditions	mass density, 313.15 K [kg/m3]	mass density, 323.15 K [kg/m3]	speed of sound, 313.15 K [m/s]	speed of sound, 323.15 K [m/s]	viscosity, 313.15 K [mPa·s]	viscosity, 323.15 K [mPa·s]
x1 = 0.0498	813.97	806.47	1277	1230	2.684	2.119
x1 = 0.1009	823.85	816.28	1285	1238	2.481	1.97
x1 = 0.1517	833.75	826.11	1293	1247	2.292	1.831
x1 = 0.2106	845.32	837.59	1303	1259	2.104	1.69
x1 = 0.2474	852.58	844.8	1310	1266	1.977	1.585
x1 = 0.3028	863.61	855.74	1320	1278	1.812	1.48
x1 = 0.3426	871.57	863.65	1328	1287	1.697	1.395
x1 = 0.3978	882.7	874.71	1339	1298	1.58	1.307
x1 = 0.4512	893.55	885.48	1350	1308	1.483	1.236
x1 = 0.4985	903.23	895.1	1360	1316	1.396	1.169
x1 = 0.5526	914.38	906.19	1370	1326	1.322	1.118
x1 = 0.6071	925.7	917.44	1380	1335	1.263	1.075
x1 = 0.6491	934.49	926.17	1387	1342	1.255	1.069
x1 = 0.7101	947.35	938.95	1398	1351	1.243	1.073
x1 = 0.7485	955.5	947.06	1404	1356	1.252	1.075
x1 = 0.8019	966.9	958.4	1408	1361	1.264	1.073
x1 = 0.8521	977.72	969.16	1409	1365	1.266	1.067
x1 = 0.9045	989.09	980.48	1411	1370	1.271	1.076
x1 = 0.9554	1000.23	991.56	1416	1372	1.276	1.086
